Results on 88 compounds are retold here after the supplement of paper PMC3493320.

The test system of the experiment is NCI-H295R. The experiment is described as follows: IC50 (antiproliferative, ATP content). As to conditions: 48 h. A digest of the protocol: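 Adrenocortical carcinoma cells in 1536-well plates (1500 per well, serum-free DMEM plus ITS, overnight culture) were exposed for 48 h at 37 °C, 5% CO2 to pin-transferred compounds at 8 final concentrations ranging 0.6 nM to 46 µM. ATP content was then read as CellTiter-Glo luminescence and normalised to vehicle and positive-control wells. The IC50 came from logistic curve fits, and any compound lacking a concentration response was recorded as above the top dose.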
The IC50 is the concentration needed to halve the response being measured. Take `CO/N=C(/C(=O)N[C@@H]1C(=O)N2C(C(=O)[O-])=C(COC(C)=O)CS[C@H]12)c1csc(N)n1.[Na+]`: the IC50 was above 46 µM.

As for `CCCCCCCCCCOc1cc2c(O)c(C(=O)OCC)cnc2cc1OCC`, the IC50 was above 46 µM.

Compound `Cc1c(F)c(N2CCNC(C)C2)cc2c1c(=O)c(C(=O)O)cn2C1CC1.Cl` (stereo not drawn) had an IC50 above 46 µM.

`c1ccc(C2CC2)c(OCC2=NCCN2)c1` yielded an IC50 above 46 µM.

In turn, `CC(=O)N[C@@H](CS)C(=O)O` displayed an IC50 above 46 µM.

`O=C1C(=Cc2cccs2)CCCC1=Cc1cccs1` registered an IC50 above 46 µM.

`C1CNCCN1.C[C@H](CCC(=O)O)[C@H]1CC[C@H]2[C@@H]3[C@H](O)C[C@@H]4C[C@H](O)CC[C@]4(C)[C@H]3C[C@H](O)[C@]12C` gave an IC50 above 46 µM.

`Nc1nnc(-c2cccc(Cl)c2Cl)c(N)n1` came in with an IC50 above 46 µM.

For the compound `CN1C(C(=O)Nc2ccccn2)C(=O)c2sc(Cl)cc2S1(=O)=O` (stereo not drawn), the IC50 is above 46 µM.

For `O=C1[O][Pt]2([NH][C@@H]3CCCC[C@H]3[NH]2)[O]C1=O`, the IC50 is above 46 µM.

Compound `CC(N/C(=N\C#N)Nc1ccncc1)C(C)(C)C.O` (stereo not drawn) returned an IC50 above 46 µM.

Regarding `Cc1cccc(Nc2ccccc2C(=O)O)c1C`, the IC50 was above 46 µM.

For the compound `CCC1(c2ccccc2)C(=O)NC(=O)NC1=O`, the IC50 is above 46 µM.

`Cc1ccccc1CNc1ncnc2c1ncn2[C@@H]1O[C@H](CO)[C@@H](O)[C@H]1O` yielded an IC50 above 46 µM.

Turning to `Cl.Oc1cn2c(n1)Nc1ccc(Cl)c(Cl)c1C2`, the IC50 is above 46 µM.

In the case of `COc1ccc(O)cc1`, the IC50 was above 46 µM.

As to `CC[N+](C)(CC)CCOC(=O)C(O)(c1ccccc1)C1CCCCC1.[Br-]` (stereo not drawn), the IC50 is above 46 µM.

Compound `O=C1N2[C@@](SC(C)(C)[C@@H]2[C@@](O)=O)([H])[C@@]([H])1NC([C@H](NC([C@H](N)CC(NC)=O)=O)[C@@]3=CC=C(O)C=C3)=O` gave an IC50 above 46 µM.

As for `O=[N+]([O-])c1cc([As](=O)(O)O)ccc1O`, the IC50 is above 46 µM.

`Cc1cc(-n2nc3ccc(Cl)cc3n2)c(O)c(C(C)(C)C)c1` came in with an IC50 above 46 µM.

`CCCCCCCCCCCCCCCCCC(=O)OCC(O)CO` (stereo not drawn) gave a 50% inhibitory concentration (IC50) above 46 µM.

Take `C[C@H](CCCC(C)(C)O)[C@H]1CC[C@H]2[C@@H]3CC=C4C[C@@H](O)CC[C@]4(C)[C@H]3CC[C@]12C`: the IC50 was above 46 µM.

Regarding `CN1CCc2c(c3ccccc3n2Cc2ccccc2)C1.CN1CCc2c(c3ccccc3n2Cc2ccccc2)C1.O=S(=O)(O)c1cccc2c(S(=O)(=O)O)cccc12`, the concentration for half-maximal inhibition (IC50) was above 46 µM.

In turn, `CCNC(=O)N(CCCN(C)C)C(=O)[C@@H]1C[C@@H]2c3cccc4N\C=C(\C[C@H]2N(C1)CC=C)c34` gave an IC50 above 46 µM.

`CN1C(=O)C(=NNC(N)=S)c2ccccc21`: the IC50 is above 46 µM.

In turn, `CCc1cc(C(N)=S)ccn1` registered an IC50 above 46 µM.

On to `CCc1cccc(CC)c1NC(=O)CN(CC(=O)O)CC(=O)O`, for which the IC50 was above 46 µM.

Consider `CCN(CC)C(=O)/C(C#N)=C/c1cc(O)c(O)c([N+](=O)[O-])c1`, for which the IC50 was above 46 µM.

In the case of `C[N+](C)(C)CC[N+]1(C)Cc2c(Cl)c(Cl)c(Cl)c(Cl)c2C1.[Cl-].[Cl-]`, the IC50 is above 46 µM.

`CN1CCC(O)(c2ccc(F)cc2)C(C(=O)c2ccc(F)cc2)C1` (stereo not drawn) gave an IC50 above 46 µM.

In the case of `CC[N+](CC)(CC(=O)Nc1c(C)cccc1C)Cc1ccccc1.O=C([O-])c1ccccc1`, the 50% inhibitory concentration (IC50) was above 46 µM.

Regarding `C[C@]12CCC(=O)C=C1C=C[C@@H]1[C@@H]2CC[C@@]2(C)[C@H]1CC[C@@]2(O)CCC(=O)[O-].[K+]`, the IC50 was above 46 µM.

`Oc1ncnc2[nH]ncc12`: the IC50 is above 46 µM.

`O=C(NC(=O)c1c(F)cccc1F)Nc1cc(Cl)c(OC(F)(F)C(F)C(F)(F)F)cc1Cl` (stereo not drawn) gave an IC50 above 46 µM.

Turning to `CC1(O)CCC(C(C)(C)O)CC1` (stereo not drawn), the IC50 was above 46 µM.

Regarding `O=[C@@]([O-])[C@@H](CC3=CC=CC=C3)CC(N1C[C@@]2([H])[C@@](CCCC2)([H])C1)=O.O=[C@@]([O-])[C@@H](CC6=CC=CC=C6)CC(N4C[C@@]5([H])[C@@](CCCC5)([H])C4)=O.O.O.[Ca+2]`, the IC50 was above 46 µM.

For the compound `CCOc1ccccc1OCCN[C@H](C)Cc1ccc(OC)c(S(N)(=O)=O)c1.Cl`, the IC50 was above 46 µM.

Turning to `OCc1ccccc1O`, the IC50 is above 46 µM.

Consider `C[C@H]1COc2c(C3(N)CC3)c(F)cc3c(=O)c(C(=O)O)cn1c23`, for which the IC50 was above 46 µM.

In the case of `CCN(CC)CCOC(=O)c1ccc(N)cc1.Cl`, the IC50 was above 46 µM.

The compound `Cc1ncc[nH]1` showed an IC50 above 46 µM.

In the case of `CN1CC(=O)N=C1NC(=O)Nc1cccc(Cl)c1`, the IC50 was above 46 µM.

On to `COc1ccc(C(CN(C)C)C2(O)CCCCC2)cc1` (stereo not drawn), for which the IC50 was above 46 µM.

With `CC1CCC(C(C)C)C(OC(=O)c2ccccc2O)C1` (stereo not drawn), the IC50 was above 46 µM.

Compound `CCN1CCC[C@H]1CNC(=O)c1c(OC)ccc(Br)c1OC` showed an IC50 above 46 µM.

`CN(C)CC/C=C1C(C=CC=C3)=C3C=CC2=C\1C=CC=C2.Cl` came in with an IC50 above 46 µM.

In turn, `CCCN(CCC)CCc1cccc2c1CC(=O)N2` displayed an IC50 above 46 µM.

`C[C@]12N[C@H](Cc3ccccc31)c1ccccc12.O=C(O)/C=C\C(=O)O` returned an IC50 above 46 µM.

Compound `COc1cc(N)c(Cl)cc1C(=O)NC1CN2CCC1CC2.Cl` (stereo not drawn) yielded an IC50 above 46 µM.

Take `Cl.c1ccc2c(c1)CCCC2C1=NCCN1` (stereo not drawn): the IC50 was above 46 µM.

As to `CC1CC(OC(=O)C(O)c2ccccc2)CC(C)(C)N1C.Cl` (stereo not drawn), the IC50 is above 46 µM.

As to `Cc1ccc(O)c(-n2nc3ccccc3n2)c1`, the IC50 is above 46 µM.

Compound `COc1ccc([C@@H]2Sc3ccccc3N(CCN(C)C)C(=O)[C@@H]2OC(C)=O)cc1` displayed an IC50 above 46 µM.

The compound `C=C[C@]1(C)C[C@@H](OC(=O)CSC(C)(C)CNC(=O)[C@H](N)C(C)C)[C@]2(C)[C@H](C)CC[C@]3(CCC(=O)[C@H]32)[C@@H](C)[C@@H]1O` displayed an IC50 above 46 µM.

Consider `[C@@]2\1(\C(=C/C(/C=C/1)=O)[C@H](C[C@@H]4[C@@H]2[C@H](C[C@@]3([C@](C(=O)CO)(O)CC[C@H]34)C)O)C)C`, for which the IC50 is above 46 µM.

The compound `C=CCNC(N)=S` displayed an IC50 above 46 µM.

Compound `OC(Cn1cncn1)(Cn1cncn1)c1ccc(F)cc1F` came in with an IC50 above 46 µM.

Compound `C[C@]12CC[C@H](OS(=O)(=O)[O][Na])CC1=CC[C@@H]1[C@@H]2CC[C@]2(C)C(=O)CC[C@@H]12.O.O` showed an IC50 above 46 µM.

In turn, `Clc1ccccc1Cl` had an IC50 above 46 µM.

On to `O[C@@H]([C@@H]1O\C(=C/[C@H](NC(N)=N)[C@H]1NC(C)=O)C(O)=O)[C@H](O)CO`, for which the IC50 is above 46 µM.

For `CC(=O)N[C@@H](CCC(=O)O)C(=O)O`, the IC50 is above 46 µM.

`CCCCC(CC)COS(=O)(=O)[O-].[Na+]` (stereo not drawn) showed an IC50 above 46 µM.

`O=[C@](OCC2=COC(CC3=CC=CC=C3)=C2)[C@H]1C(C)(C)[C@@H]1\C=C(C)/C` returned an IC50 above 46 µM.

Compound `O=[C@](O)[C@H]2N(C([C@H](C)N[C@H]([C@@](OCC)=O)CCC3=CC=CC=C3)=O)[C@@]1([H])CCCC[C@@]([H])1C2` displayed an IC50 above 46 µM.

Regarding `O.O.O.O.[Na+].[O-]c1ccccc1-c1ccccc1`, the IC50 was above 46 µM.

`C[C@H](O)C(=O)Nc1c(I)c(C(=O)NC(CO)CO)c(I)c(C(=O)NC(CO)CO)c1I` had an IC50 above 46 µM.

Turning to `COc1c(O)cc2c(c1O)[C@@H]1O[C@H](CO)[C@@H](O)[C@H](O)[C@H]1OC2=O.O`, the IC50 is above 46 µM.

`CCCCCC(C=O)=Cc1ccccc1`: the IC50 was above 46 µM.

In turn, `CCCC(C)(COC(N)=O)COC(=O)NC(C)C` (stereo not drawn) gave an IC50 above 46 µM.

As for `CC(C)C(Br)C(=O)NC(N)=O` (stereo not drawn), the IC50 is above 46 µM.

Consider `COc1c2occc2cc2ccc(=O)oc12`, for which the IC50 was above 46 µM.

`Cc1cc(C)nc(NS(=O)(=O)c2ccc(N)cc2)n1` registered an IC50 above 46 µM.

As to `Nc1cc(c(cc1S(=O)(N)=O)S(N)(=O)=O)C(/Cl)=C(/Cl)Cl`, the IC50 is above 46 µM.

The compound `CC(=O)Nc1ccc(C=NNC(N)=S)cc1` returned an IC50 above 46 µM.

`Cn1c(=O)c2c(ncn2C)n(C)c1=O.O=C(O)CC(O)(CC(=O)O)C(=O)O` registered an IC50 above 46 µM.

As to `C=CC(=O)O`, the IC50 is above 46 µM.

`CC=Cc1ccc(O)c(OC)c1` displayed an IC50 above 46 µM.

Turning to `COC(=O)[C@@H](N)CS.Cl`, the IC50 was above 46 µM.

The compound `CCN1CCC[C@H]1CNC(=O)c1c(O)c(Cl)cc(Cl)c1OC` returned an IC50 above 46 µM.

Compound `Oc1ccc2c3c1O[C@H]1[C@@H](O)CC[C@@]4(O)[C@@H](C2)N(CC2CCC2)CC[C@]314` returned an IC50 above 46 µM.

`O=c1[nH]c(=O)n([C@H]2C[C@H](O)[C@@H](CO)O2)cc1C(F)(F)F` showed an IC50 above 46 µM.

On to `NCCCC[C@H](N[C@@H](CCc1ccccc1)C(=O)O)C(=O)N1CCC[C@H]1C(=O)O.O.O`, for which the IC50 was above 46 µM.

`O=[C@](COC(C(C)(C)C)=O)[C@@H]2[C@](CC1)(C)[C@](CC2)([H])[C@@](CC4)([H])[C@@]1([H])[C@](CC3)(C)C4=CC3=O`: the IC50 is above 46 µM.

For the compound `CC[C@]12CCCN3CCc4c(n(c5ccccc45)[C@@](O)(C(=O)OC)C1)[C@@H]32`, the IC50 is above 46 µM.

As to `O=CC=O`, the IC50 is above 46 µM.

`CC(=O)OCC(=O)[C@@]12OC3(CCCC3)O[C@@H]1C[C@H]1C3CCC4=CC(=O)C=C[C@]4(C)[C@@]3(F)[C@@H](O)C[C@@]12C` (stereo partly drawn) showed an IC50 above 46 µM.

`COc1ccc(C(Cl)=C(c2ccc(OC)cc2)c2ccc(OC)cc2)cc1` showed an IC50 above 46 µM.

For the compound `CC(O)C(=O)O.CCOc1ccc2nc3cc(N)ccc3c(N)c2c1.O`, the IC50 was above 46 µM.
